Assay results as given in publication PMC8850458, “The AUTOTAC chemical biology platform for targeted protein degradation via the autophagy-lysosome system” (Nature Communications, 2022).
“And” between values parts separate entries of the source, which are not always exact repeats. Equal entries are not always repeated. Where two headings read alike, the source gives them in different places.

Experiments:
mutant desminL385P = molecular target: T1, mutant desminL385P (Homo sapiens, UniProt P17661, L385P); assay: WB degradation of mutant desmin in HeLa cells; format: cell-based; conditions: exogenously expressed
T1 construct: expressed in transfected cells; host or cells: HeLa, transient
Protocol: (§1) Adherent cells were washed with phosphate-buffered saline (PBS) and cell pellets were lysed in SDS-based sample buffer (277.8 mM Tris-HCI, pH 6.8, 4.4% LDS, 44.4% (v/v) glycerol) containing beta-mercaptoethanol. Alternatively, cell pellets or protein supernatants were lysed in 5X Laemmli sample buffer. Whole-cell lysates were separated using SDS-PAGE, and transferred onto polyvinyllidene difluoride membranes at 100 V for 2 h at 4 °C. The membrane was incubated with a blocking solution consisting 4% skim milk in PBS solution for 30 min at room temperature and incubated with primary antibodies overnight, followed by incubation with host-specific HRP-conjugated secondary antibodies (1:10000 dilution). For signal detection, the membrane was developed with a mixture of ECL solution (Thermo Fisher Scientific) using X-ray films. Densitometry of developed bands was measured and analyzed with ImageJ (NIH, Bethesda).
(§2) Supplementary Fig. 5. AUTOTACs selectively target pathological aggregation-prone proteins for autophagic degradation. (a) WB in HEK293T cells treated with PBA-1105 (1 μM) and MG132 (1 μM, 24 h) at the indicated time points. (b) ICC of HeLa cells treated with the indicated compounds (1 μM, 24 h). Scale bar, 10 μm. (c) WB in HEK293T cells treated with PBA-1105 (500 nM, 24 h) and MG132 (1 μM, 24 h) under siRNA-mediated knockdown of p62 or ATG7 (20 nM, 48 h). (d) ICC in HeLa cells transiently expressing WIPI2-GFP and treated with Anle138b-F105 (1 μM, 24 h). Scale bar, 10 μm. (e) ICC in HeLa cells treated with […]
(§3) nM, 24 h). (g, h) WB in HeLa cells transiently expressing wild type or mutant (L385P) desmin-flag with LacZ-myc and treated with PBA-1105, PBA-1105b or Anle138b-F105 at the […]

wild-type desmin = molecular target: T2, wild-type desmin (Homo sapiens, UniProt P17661); assay: WB degradation of wild-type desmin in HeLa cells; format: cell-based; conditions: exogenously expressed
T2 construct: expressed in transfected cells; host or cells: HeLa, transient
Protocol: as §1, §2, §3

[1] = molecular target: T3, tau oligomers (htauP301L-BiFC bodies) and phosphorylated tau-BiFC (Homo sapiens, UniProt P10636, P618L); assay: Immunohistochemistry of BiFC and AT8 fluorescence in brains of hTauP301L-BiFC mice; format: in vivo; conditions: Fig. 6k; for Sudan black B (BiFC fluorescence) CA1, per animal: control AVG 32.0843; for Sudan black B (BiFC fluorescence) Cortex, per animal: control AVG 98.7415
T3 construct: from tissue; host or cells: brain of 9-month-old hTauP301L-BiFC transgenic mice (C57BL/6)
Protocol: To evaluate the effect of PBA-1105 on tau aggregation in vivo, PBA-1105 was intraperitoneally administered to 9-month-old TauP301L-mice (n = 7 per group) with 20 or 50 mg/kg dosage. PBS containing 30% polyethylene glycol (PEG) was used as a vehicle. Twelve total administrations were performed for 4 weeks, three times a week.
Mice were anesthetized by intraperitoneal injection of 2% avertin (2,2,2-Tribromoethanol). Mice were then perfused with 0.9% saline. Brains were rapidly extracted and fixed with PBS containing 4% paraformaldehyde for 48 hr. For, cryprotection, the brains were infiltrated with PBS containing 30% sucrose at 4 °C until they sunk. For cryosectioning, the brains were embedded with O.C.T (Leica, Germany) and serially cut in the coronal plane into 30-μm thick sections on a cryostat microtome (Leica). Tissue slices were transferred to PBS containing 0.05% sodium azide as a preservative and stored at 4 °C.
To reduce autofluorescence of brain tissues, Sudan Black B stain was performed. Brain tissue slices were mounted onto glass slides and were stained with Sudan Black B solution (70 % ethanol containing 0.05% Sudan Black B) for 10 min. Then, to eliminate the excessive stain, the slides were dipped in PBS containing 0.1% Triton X-100 three times and washed with distilled water after. For nuclei counter-stain, brain tissues were stained with 0.5 μg/mL Hoechst in distilled water for 30 min. BiFC fluorescence (λex = 460−490 nm and λem = 500−550 nm) of brain slices were imaged using ZEISS® Axio Scan.Z1 (Zeiss, Germany). Fluorescence and total area of each puncta were measured using ImageJ (NIH, Bethesda).

[2] = PK parameters in ICR mice; format: in vivo; conditions: single injection
[3] = tested on: endogenous wild-type murine tau; conditions: for AVG (%) Insoluble mTau / AVG (%) Soluble mTau: control 100
[4] = tested on: AR pathways (EGFR, p-Akt/Akt); assay: WB of AR downstream signaling in DHT-activated cells; format: cell-based; conditions: levels of EGFR and p-Akt/Akt
From the text: To assess the therapeutic efficacy of autophagy-targeting degraders, we compared the downstream signaling of AR and ERβ in cells treated with either AUTOTACs or their cognate TBLs. Dihydrotestosterone (DHT) and estradiol (E2) are natural agonists that respectively bind AR and ERβ and induce their dimerization and nuclear translocation, resulting in transcriptional activation of downstream proteins[27],[28]. […] Next, we examined the potency of AUTOTACs in cancer cell growth and progression.
Adherent cells were washed with phosphate-buffered saline (PBS) and cell pellets were lysed in SDS-based sample buffer (277.8 mM Tris-HCI, pH 6.8, 4.4% LDS, 44.4% (v/v) glycerol) containing beta-mercaptoethanol. Alternatively, cell pellets or protein supernatants were lysed in 5X Laemmli sample buffer. Whole-cell lysates were separated using SDS-PAGE, and transferred onto polyvinyllidene difluoride membranes at 100 V for 2 h at 4 °C.

[5] = WST-based cell viability assay in LNCaP cells; conditions: human, LNCaP cells
LNCaP cells = assay: WST-based cell viability assay in LNCaP cells; conditions: LNcaP, duplicates; for WST assay raw reading: listed as Vinclo.-2204
[6] = WST assay viability relative to con = 100, LNcaP, duplicates
[7] = WST assay viability, AVG %, LNcaP

T3 sequence (P10636 1-441 isoform P10636-8 P301L): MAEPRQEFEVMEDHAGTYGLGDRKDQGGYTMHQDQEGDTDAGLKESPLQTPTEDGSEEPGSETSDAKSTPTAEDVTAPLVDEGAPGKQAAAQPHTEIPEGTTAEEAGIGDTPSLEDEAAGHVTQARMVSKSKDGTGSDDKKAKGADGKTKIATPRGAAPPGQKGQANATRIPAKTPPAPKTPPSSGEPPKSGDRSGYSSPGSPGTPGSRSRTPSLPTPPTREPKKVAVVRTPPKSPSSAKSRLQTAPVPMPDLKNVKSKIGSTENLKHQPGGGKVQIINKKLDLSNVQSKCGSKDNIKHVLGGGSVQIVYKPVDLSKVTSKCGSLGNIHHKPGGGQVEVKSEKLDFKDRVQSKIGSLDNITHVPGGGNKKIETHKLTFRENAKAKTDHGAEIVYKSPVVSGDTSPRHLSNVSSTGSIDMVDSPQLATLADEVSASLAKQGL
T1 sequence (P17661 whole entry L385P): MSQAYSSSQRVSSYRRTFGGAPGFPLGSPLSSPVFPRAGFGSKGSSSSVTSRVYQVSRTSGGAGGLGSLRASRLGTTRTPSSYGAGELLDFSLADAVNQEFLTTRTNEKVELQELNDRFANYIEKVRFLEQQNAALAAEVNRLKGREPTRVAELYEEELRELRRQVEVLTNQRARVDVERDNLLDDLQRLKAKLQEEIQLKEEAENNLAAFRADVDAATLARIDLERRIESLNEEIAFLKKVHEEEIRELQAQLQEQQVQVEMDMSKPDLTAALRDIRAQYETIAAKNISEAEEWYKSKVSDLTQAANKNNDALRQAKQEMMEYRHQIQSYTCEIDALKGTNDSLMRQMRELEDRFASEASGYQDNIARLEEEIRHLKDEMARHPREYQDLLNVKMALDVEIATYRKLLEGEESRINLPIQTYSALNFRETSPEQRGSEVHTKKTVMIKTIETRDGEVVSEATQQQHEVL
T2 sequence (P17661 whole entry): as the sequence (P17661 whole entry L385P) above, with P385L counted along it

O=C(CCCc1ccccc1)NCCOCCOCCOCCNCc1ccc(OCc2ccccc2)c(OCc2ccccc2)c1 [PBA-1105]
degradation of mutant desminL385P (mutant desminL385P): induced the degradation
degradation of wild-type desmin (wild-type desmin): not wild-type desmin
Sudan black B AVG % CA1 ([1]; 20 mg/kg, control 100): 74.803%
Sudan black B AVG % Cortex ([1]; 20 mg/kg, control 100): 62.7215%
Sudan black B (BiFC fluorescence) CA1, per animal ([1]; 20 mg/kg): 19.17 and 25.62 and 30.19 and 23.53 and 13.28 and 12.8 and 43.41
Sudan black B (BiFC fluorescence) Cortex, per animal ([1]; 20 mg/kg): 48.97 and 40.445 and 49.503 and 29.786 and 68.378 and 118.96 and 77.483
Sudan black B AVG % Cortex ([1]; 50 mg/kg, control 100): 38.7498%
Sudan black B (BiFC fluorescence) CA1, per animal ([1]; 50 mg/kg): 28.22 and 22.5 and 36.39 and 26.84 and 28.79 and 49.66 and 49.74
Sudan black B (BiFC fluorescence) Cortex, per animal ([1]; 50 mg/kg): 22.584 and 15.381 and 25.562 and 21.978 and 66.624 and 61.234 and 54.472
exposure [2]: good albeit rapidly metabolized exposure
AVG (%) Insoluble mTau ([3]; 20 mg/kg): 110.945%
AVG (%) Soluble mTau ([3]; 20 mg/kg): 97.7163%
AVG (%) Insoluble mTau ([3]; 50 mg/kg): 56.7728%
AVG (%) Soluble mTau ([3]; 50 mg/kg): 133.669%
endogenous wild-type murine tau in detergent-soluble or -insoluble fractions ([3]; mouse, in vivo): did not degrade

C=CC(C)(O)C(=O)N(C(=O)NCCOCCOCCNCC(O)COc1ccc(OCCc2ccccc2)c(OCCc2ccccc2)c1)c1cc(Cl)cc(Cl)c1 (centres unmarked) [VinclozolinM2-2204]
inhibition of AR pathways relative to its TBL [4]: approximately 4 folds
IC50 [5]: 4.7 µM
viability at 0.01 µM [5, 6]: 93.5%
viability at 0.1 µM [5, 6]: 92.5%
viability at 1 µM [5, 6]: 89.8%
viability at 10 µM [5, 6]: 24.6%
viability at 50 µM [5, 6]: 1.83%
viability at 100 µM [5, 6]: 3.03%
viability at 0.01 µM [5, 7]: 92.9%
viability at 0.1 µM [5, 7]: 91.6%
viability at 1 µM [5, 7]: 89.9%
viability at 10 µM [5, 7]: 30.9%
viability at 50 µM [5, 7]: 1.93%
viability at 100 µM [5, 7]: 3.08%
WST assay raw reading (LNCaP cells; 0.01uM): 1.976 and 1.95
WST assay viability relative to con = 100 (LNCaP cells; 0.01uM, listed as Vinclo.-2204, 0.01 µM): 92.2257
WST assay raw reading (LNCaP cells; 0.1uM): 1.955 and 1.92
WST assay viability relative to con = 100 (LNCaP cells; 0.1uM, listed as Vinclo.-2204, 0.1 µM): 90.7275
WST assay raw reading (LNCaP cells; 1uM): 1.902 and 1.905
WST assay viability relative to con = 100 (LNCaP cells; 1uM, listed as Vinclo.-2204, 1 µM): 89.9784
WST assay raw reading (LNCaP cells; 10uM): 0.595 and 0.848
WST assay viability relative to con = 100 (LNCaP cells; 10uM, listed as Vinclo.-2204, 10 µM): 37.1899
WST assay raw reading (LNCaP cells; 50uM): 0.14 and 0.144
WST assay viability relative to con = 100 (LNCaP cells; 50uM, listed as Vinclo.-2204, 50 µM): 2.031
WST assay raw reading (LNCaP cells; 100uM): 0.164 and 0.166
WST assay viability relative to con = 100 (LNCaP cells; 100uM, listed as Vinclo.-2204, 100 µM): 3.13
